PubChem BioAssay (NCI)
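96-well plates; 48 h exposure; 5 concentrations. Endpoints by linear interpolation between flanking doses. Not reached: highest tested concentration assigned. GI50 marks 50% less growth. TGI denotes the concentration required for complete inhibition of growth.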

What was measured:
Assay in all cases: NCI tumour cell line growth inhibition, 48 h
NCI-H460 lung = system: NCI-H460 lung
HS 578T breast = system: HS 578T breast
RXF 393 renal = system: RXF 393 renal
MCF7 breast = system: MCF7 breast
SR leukemia = system: SR leukemia
TK-10 renal = system: TK-10 renal
T-47D breast = system: T-47D breast
SK-MEL-28 melanoma = system: SK-MEL-28 melanoma
M14 melanoma = system: M14 melanoma
A498 renal = system: A498 renal

Row | Compound | TGI (NCI-H460 lung) [µM] | TGI (HS 578T breast) [µM] | TGI (RXF 393 renal) [µM] | TGI (MCF7 breast) [µM] | TGI (SR leukemia) [µM] | TGI (TK-10 renal) [µM] | TGI (T-47D breast) [µM] | TGI (SK-MEL-28 melanoma) [µM] | TGI (M14 melanoma) [µM] | TGI (A498 renal) [µM] | GI50 (NCI-H460 lung) [µM] | GI50 (HS 578T breast) [µM] | GI50 (A498 renal) [µM] | GI50 (RXF 393 renal) [µM] | GI50 (MCF7 breast) [µM] | GI50 (TK-10 renal) [µM] | GI50 (T-47D breast) [µM] | GI50 (SK-MEL-28 melanoma) [µM] | GI50 (M14 melanoma) [µM] | GI50 (SR leukemia) [µM]
1 | COc1ccc2c(c1O)C13CCN(C)C(C2)C1CCC1(C3)OCCO1 (stereo unspecified) | > 100 | > 100 | > 100 | > 100 | > 100 | > 100 | > 100 | > 100 | > 100 | – | – | – | – | – | – | – | – | – | – | –
2 | COc1ccc2c(c1)C(=O)N1CCOC1C2C(=O)O (stereo unspecified) | > 100 | – | – | – | > 100 | > 100 | – | > 100 | > 100 | > 100 | – | – | – | – | – | – | – | – | – | –
3 | CC(=O)Oc1cc(C)c2c(c1OC(C)=O)CC1(O2)[C@@H](C)CCC2[C@@]3(C)CC[C@H](OC(C)=O)C(C)(C)C3CC[C@]21C (stereo partly specified) | 10.8 | – | 2.84 | – | 11.3 | 11.1 | – | 15.9 | 18.7 | 21.4 | – | – | – | – | – | – | – | – | – | –
4 | N#CC(/C(=N/NC(=O)C(=O)NN)C(=O)Nc1nc([N+](=O)[O-])cs1)c1ccc(Cl)cc1 (stereo unspecified) | > 100 | – | > 100 | – | – | > 100 | – | > 100 | > 100 | – | – | – | – | – | – | – | – | – | – | –
5 | C#CCN(Cc1nc2cc(C(F)(F)F)ccc2nc1-c1ccccc1)c1ccc(OC(F)(F)F)cc1 | > 100 | > 100 | > 100 | > 100 | – | > 100 | > 100 | > 100 | > 100 | > 100 | 38 | > 100 | 50.1 | 46.7 | 32 | 78.9 | 39.1 | > 100 | 50.3 | –
6 | CC[O-].CC[O-].O=C([CH-]C(=O)c1cccnc1)c1ccccc1.O=C([CH-]C(=O)c1cccnc1)c1ccccc1.[Ti+4] | > 100 | – | 70.4 | – | > 100 | – | – | > 100 | > 100 | > 100 | 31.2 | – | > 100 | 19.7 | – | – | – | > 100 | 60.4 | 25.5
7 | O=C(Nc1ccccc1)c1nn(-c2cc(S(=O)(=O)O)c([N+](=O)[O-])cc2Cl)[n+](-c2cc(S(=O)(=O)[O-])c([N+](=O)[O-])cc2Cl)n1 | > 100 | > 100 | > 100 | > 100 | > 100 | > 100 | > 100 | > 100 | > 100 | – | – | – | – | – | – | – | – | – | – | –
8 | COc1cc2c3c(n(CCCN(CCN)CCCn4c5c(c6cc(OC)c(OC)cc6c4=O)C(=O)c4cc6c(cc4-5)OCO6)c(=O)c2cc1OC)-c1cc2c(cc1C3=O)OCO2 | 13.6 | > 100 | 12.7 | > 36 | – | > 24.8 | > 100 | > 100 | 18.3 | 25.7 | 0.469 | 12.6 | 6.71 | 3.39 | 0.376 | 3.11 | 0.457 | > 37.1 | 0.752 | –
9 | C=C(C)C1Cc2c(cc(OC)c3c(=O)c4cccc(O)c4oc23)O1 (stereo unspecified) | 62.6 | 49.3 | 35.9 | 17.4 | > 100 | 46.9 | 40 | 72 | 50.8 | – | – | – | – | – | – | – | – | – | – | –
10 | CN(C)CCN(C)CC1COC(C)(C)O1 (stereo unspecified) | > 100 | – | > 100 | – | > 100 | > 100 | – | > 100 | > 100 | > 100 | – | – | – | – | – | – | – | – | – | –
11 | O=c1cc(-c2ccccc2)oc2cc(O)c(O)c(O)c12 | > 100 | – | > 100 | – | – | 81.2 | > 100 | > 100 | 92.2 | > 100 | 7.99 | – | 6.94 | 78.6 | – | 28 | 23.7 | 92.3 | 22.9 | –
12 | Cc1noc2cccc(OCc3ccccc3)c12 | > 100 | – | > 100 | – | > 100 | > 100 | – | > 100 | > 100 | – | – | – | – | – | – | – | – | – | – | –
13 | CCN(CC)CCCn1cnc2ncccc2c1=O | > 100 | – | > 100 | – | > 100 | > 100 | – | > 100 | > 100 | – | – | – | – | – | – | – | – | – | – | –
14 | CN(CCCCCl)P(=O)(OCc1ccc([N+](=O)[O-])o1)OCC1OC(n2ccc(N)nc2=O)C(F)(F)C1O (stereo unspecified) | – | > 100 | > 100 | > 49 | 5.63 | > 82.7 | – | > 100 | 0.269 | > 74.5 | 0.3 | > 68 | 5.8 | > 100 | 0.45 | – | – | 43.1 | 0.0537 | 0.801
15 | Cc1oc2c(C)c3oc(=O)cc(C)c3cc2c1CNC(=O)[C@@H]1OCCOCCOCCOCCOCCOC1C(=O)O (stereo partly specified) | > 100 | – | > 100 | – | > 100 | > 100 | – | – | 27.5 | > 100 | – | – | – | – | – | – | – | – | – | –
16 | O=C(O)C1=CCCc2ccc3ccccc3c21 | > 100 | – | > 100 | – | – | > 100 | – | > 100 | > 100 | > 100 | – | – | – | – | – | – | – | – | – | –
17 | Cc1ccccc1C1=[N+]([O-])c2ccccc2C1=O | 37.3 | – | 37.3 | – | > 100 | 32.2 | – | 35.8 | 32.4 | > 100 | – | – | – | – | – | – | – | – | – | –
18 | N#CC(C(=O)/C(=N/NC(=O)c1ccccc1O)C(C#N)c1ccccc1)c1ccccc1 (stereo unspecified) | > 100 | – | > 100 | – | – | > 100 | – | > 100 | > 100 | > 100 | – | – | – | – | – | – | – | – | – | –
19 | COC(c1cccc(C(O)(C(F)(F)F)C(F)(F)F)c1)(C(F)(F)F)C(F)(F)F | 41.5 | – | 35.9 | – | 51.4 | 36.6 | – | – | 34 | 34.4 | – | – | – | – | – | – | – | – | – | –
20 | CC(=O)CCc1ccc(OC2OC(COC(=O)c3cc(O)c(O)c(O)c3)C(O)C(O)C2OC(=O)/C=C/c2ccccc2)cc1 (stereo unspecified) | 43.5 | > 100 | 47.2 | 47.1 | – | 61.3 | > 100 | 39.9 | 37.4 | 48 | 21 | 33.8 | 23.2 | 19 | 22.7 | 23.8 | 26.1 | 19.4 | 18.6 | –
21 | COC(=O)C1CCC(Nc2ccc(C)cc2C)=N1 (stereo unspecified) | > 100 | – | – | – | – | > 100 | – | > 100 | > 100 | > 100 | – | – | – | – | – | – | – | – | – | –
